From patent US9867794B2, “Regulation of osteopontin” (Pathologica LLC, priority 2007, dated 2018)
“And” between values parts separate entries of the source, which are not always exact repeats. Equal entries are not always repeated.

Experiments:
LILRA1 = assay: Microarray analysis of mononuclear cells, LILRA1; format: cell-based, human; details: for LILRA1 signal +, Average: 10 μM MGBG
Experimental: (§1) Blood samples were obtained from HIV infected patients (N=9) with positive viral load and reduced CD4 counts, and non-HIV infected, healthy controls (N=6). Blood was collected into heparin anticoagulant tubes and mononuclear cells were isolated by Percoll gradient centrifugation. The cells from each sample were split into 2: one-half receives MGBG at concentration of 10 μM and the other half received no treatment. All samples were then cultured overnight in RPMI media with 10% fetal bovine serum at 37° C. under non-adherent conditions. The next day cells were collected by centrifugation, washed one time with PBS, and lysed by resuspension in TRIZOL, and total RNA was prepared according to manufacturer's instructions (Invitrogen, Carlsbad, Calif.). […] The RNA was then amplified for microarray analysis using a 2 cycle amplification protocol according to the manufacturer's instructions (Affymetrix, Santa Clara, Calif.). The amplified RNAs were then hybridized to Human Genome U133 plus 2.0 microarrays (Affymetrix) and expression data was obtained using an Affymetrix scanner and GCOS protocols. Microarray data was analyzed with GeneSpring Microarray Suite. Results were normalized using a set of 100 probe sets determined by the manufacturer to have relatively invariant expression across most cell types.

MX2 = assay: Quantitative RT-PCR, unsorted mononuclear cells, MX2; format: cell-based, human
Experimental: To evaluate the effect of MGBG on gene expression, blood samples were obtained from patients (N=18, 10 HIV-infected and 8 Healthy Controls). Mononuclear cells were isolated via Percoll gradient centrifugation. The cells were split into two tubes, one treated with 10 μM of MGBG and the other non-treated. The cells were then cultured overnight in RPMI media plus 10% fetal bovine serum at 37 C under non-adherent conditions, collected, lysed using Trizol solution, and total RNA prepared according to manufacturer's instructions (Invitrogen, Carlsbad, Calif.).
Approximately 200 ng of total RNA prepared from each sample was converted to cDNA using the First Strand cDNA Synthesis Kit for RT-PCR [AMV] kit (Roche Applied Diagnostics, Indianapolis, Ind.) according to manufacturer's instructions. Around 5 ng of cDNA sample was then used for PCR performed on a LightCycler (Roche Applied Diagnostics, Indianapolis, Ind.) using the LightCycler FastStart DNA Master SYBR Green I kit. PCR conditions are as follows: 1 cycle of denaturation at 95° C. for 10 minutes, followed by 45 cycles of 95° C. for 10 seconds, 68° C. for 10 seconds, and 72° C. for 16 seconds.
The sequences of gene-specific primers evaluated are listed below. All samples were also amplified with the human β-actin LightCycler-Primer set (Roche Diagnostics).

osteopontin = assay: QRT-PCR in CD14/CD16-separated cell fractions, osteopontin RNA; format: cell-based, human; details: for osteopontin RNA, median change relative to no MGBG: 10 μM MGBG
Experimental: The changes induced by MGBG in different blood cell types were determined for osteopontin and adenosine deaminase and 7 other genes. For this experiment, blood samples were obtained from 6 healthy controls (3 men/3 women from 20 to 55 years of age) and mononuclear cells were isolated via Percoll gradient centrifugation. The cells were then incubated for 3 hours in RPMI media plus 10% fetal bovine serum at 37 C. At that point MGBG was added to 10 μM to half of each sample and then the cells were incubated at 37 C for 20 more hours. The cells were then bound to magnetic beads coated with antibodies to human CD16. Bound cells (CD16 expressing) were separated from unbound cells using an AutoMACs according to manufacturer's instructions (Miltenyi, Auburn Calif.). Then CD16+ cells are released from the magnetic beads and both the CD16+ and CD16− cells are combined with magnetic beads coated with antibodies to human CD14. Antibody bound and unbound cells were then separated using the AutoMACs machine. […] Cells that neither express CD16 nor CD14 (the −/− Cells). This is mostly T lymphocytes; 2. Cells that only express CD16. This includes contaminating granulocytes not removed by Percoll centrifugation and CD16+ monocytes with very low CD14 expression; 3. Cells that express both CD16 and CD14. This includes monocytes that are expressing CD16+ and macrophages (which express high levels of both); and 4. Cells that only express CD14. This would include most normal human monocytes. After separation, cells of each fraction are washed with PBS and the number of viable cells determined by trypan blue exclusion. RNA is then prepared from each cell group using TRIZOL, according to manufacturer's instructions.

CD14/16++ cells = assay: Yield of CD14/16++ cells in culture, flow cytometry; format: cell-based, human; details: 10 μM MGBG; for % Reduction 14/16, Average: 5th day
HeLa cell = assay: Migration assay, HeLa cell invasion into a Matrigel matrix; format: cell-based; details: 10 μM MGBG
Experimental: (§2) Additionally, cells being targeted by MGBG were investigated. […] To elucidate the effects of MGBG and OPN on cell motility, migration assays were conducted. MGBG at 10 μM inhibited macrophage Osteopontin production from >200 ng/mL to nondetectable levels while simultaneously inhibiting HeLa cell invasion into a Matrigel matrix.

[1] = tested on: CD14+ macrophages; CD16+/CD14− cells; assay: Phenotypic analysis of cells targeted by MGBG; format: cell-based; details: increasing concentrations of MGBG
Experimental: as §2

IL10 = assay: Microarray analysis of mononuclear cells, IL10 probe; format: cell-based, human; details: presence of MGBG, all samples
Experimental: as §1

CC(/C=N/NC(=N)N)=N\NC(=N)N [MGBG, 1,1′ [methylethanediylidene]dinitrilodiguanidine]
LILRA1 signal +, Average (LILRA1; average of HIV samples): 77 | LILRA1 signal +, Average (LILRA1; average of control samples (C6-, M6-177)): 133 | LILRA1 fold change, ON/MGBG ratio (down-regulation) (LILRA1; 10 μM, individual donor samples): 6.5 fold and 1.8 fold and 0.3 fold (2×) and 11.6 fold and 3.7 fold and 3.1 fold and 13.8 fold and 2.4 fold and 0.5 fold and 1.1 fold and 2.9 fold and 14.6 fold and 1.3 fold (2×) | samples with LILRA1 down-regulated more than 2 fold (LILRA1; HIV samples): 5 of 9 | LILRA1 signal + (LILRA1; presence of 10 μM MGBG overnight, individual donor samples): 40 and 129 and 10 and 65 and 246 and 73 and 42 and 99 and 94 and 212 and 277 and 21 and 1 and 15 and 164 | Fold change MX2 by QRT-PCR (MX2; 10 μM MGBG overnight, individual samples): 2.03 fold and −1.09 fold and 1.16 fold (2×) and −1.01 fold and 4.35 fold and 1.56 fold and −2.81 fold and 3.07 fold and −1.33 fold and −1.77 fold and −3.27 fold and 1.36 fold and 1.13 fold and −2.11 fold and −2.85 fold and 1.23 fold and 6.06 fold | MX2 AVERAGE (MX2; 10 μM MGBG, all samples): 1.55 fold | MX2 MAX (MX2; 10 μM MGBG, all samples): 6.06 fold | MX2 MIN (MX2; 10 μM MGBG, all samples): −3.27 fold | osteopontin RNA, median change relative to no MGBG (osteopontin; CD14+ monocyte fraction): 0.21 | osteopontin RNA median reduction (osteopontin; CD14+ monocyte fraction, 10 μM MGBG 20 h, healthy controls, p=0.03): 4.8 fold | osteopontin RNA, median change relative to no MGBG (osteopontin; CD14/16++ cells, not significant): 0.61 | osteopontin RNA, median change relative to no MGBG (osteopontin; CD16+ cells, not significant): 1.12 | osteopontin RNA, median change relative to no MGBG (osteopontin; double negative cells, not significant): 0.70 | % Reduction 14/16 (CD14/16++ cells; 5th day of culture, individual donor samples (HIV or healthy)): 26% and 53% and 91% and 54% and 61% and <0% and 71% | % Reduction 14/16, Average (CD14/16++ cells; average of HIV samples): 60.3% | % Reduction 14/16, Average (CD14/16++ cells; average of healthy samples): 57.5% | HeLa cell invasion into a Matrigel matrix (HeLa cell): inhibiting | levels of CD16+/CD14− cells [1]: did not affect | yields of CD14+ macrophages [1]: decreasing yields | average change in IL10 signal, upregulated (IL10): 5.6 fold
